Assays:
GSH:GSSG ratio = GSH:GSSG ratio in treated worms; format: cell-based, Schistosoma mansoni; settings: after 6 h of treatment with 10 μM AF
Protocol: (§1) AF was dissolved in DMSO and added to freshly perfused worms in DMEM to 10 μM. Control worms were treated with equal amounts of carrier. Worms were subsequently observed for unpairing, motility, and mortality, and were collected at the indicated time intervals for analysis. Worms were homogenized by sonication in PBS and homogenates were assayed for TrxR and GR activities as described above. […] Each assay was done in triplicate and each experiment was done three times.

[1] = system: schistosomula and juvenile liver stage parasites; assay: Survival of larval and juvenile parasites in culture with AF; format: cell-based, Schistosoma mansoni; settings: AF at concentrations as low as 5 μM
Description: Percutaneous infection of outbred mice (NIH Swiss or Swiss-Webster) with S. mansoni cercariae (NMRI strain) obtained from infected Biomphalaria glabrata snails, perfusion of adult worms (6–7 wk) and juvenile worms (23 d) and preparation of schistosomula from cercariae were as described. This study was approved by the Institutional Animal Care and Use Committee of Illinois State University (08–2002; Department of Health and Human Services animal welfare assurance number A3762–01).
Figure 6 Survival of Schistosomula, Adult Worms, and Myeloma Cells in the Presence of Auranofin or Potassium Antimonyl Tartrate (A) Cultured schistosomula treated with 0 μM AF (dashed line); AF 0.5 μM (♦); 1 μM (*); 2 μM (x); 5 μM (▴); 10 μM. (B) Survival of adult Schistosoma mansoni worms at 24 h (dashed line), myeloma cells at 24 h; and myeloma cells at 5 d (♦) at given concentrations of AF. (C) As in (B) in the presence of given concentrations of PAT. Each treatment was done in triplicate and each experiment was done three times. Error bars show the standard deviation of the three replicate experiments.

myeloma cell line SP2/0 = assay: Cytotoxicity assay (sulforhodamine B); format: cell-based; settings: for 5 d
Protocol: Cytotoxicity assays were performed using sulforhodamine B to determine cellular protein content as described. Briefly, myeloma cell line SP2/0 was cultured in 96-well microtiter plates containing 0.2 ml of RPMI-1640 per well at a cell density of 1,000 per well at 37 °C in 5% CO2. Cells were treated with drug concentrations (or drug carrier alone) and exposure times as indicated. After treatment, cells were fixed with 10% TCA at 4 °C for 1 h. Fixed cells were rinsed to remove fixative and then stained in 0.4% (w/v) sulforhodamine B (Sigma) in 1% acetic acid for 30 min. After washing with 1% acetic acid and dye extraction in 10 mM Tris (pH 10.5), plates were read at A564nm. The A564nm of drug-treated cells was compared to carrier-only-treated cells. The treatments were done in triplicate and the experiments repeated three times.

Human GR = target: T1, Human GR (Homo sapiens, UniProt P00390); settings: read-out: IC50 Human GR, GSSG; cited from earlier work
T1 sequence (P00390 44-522): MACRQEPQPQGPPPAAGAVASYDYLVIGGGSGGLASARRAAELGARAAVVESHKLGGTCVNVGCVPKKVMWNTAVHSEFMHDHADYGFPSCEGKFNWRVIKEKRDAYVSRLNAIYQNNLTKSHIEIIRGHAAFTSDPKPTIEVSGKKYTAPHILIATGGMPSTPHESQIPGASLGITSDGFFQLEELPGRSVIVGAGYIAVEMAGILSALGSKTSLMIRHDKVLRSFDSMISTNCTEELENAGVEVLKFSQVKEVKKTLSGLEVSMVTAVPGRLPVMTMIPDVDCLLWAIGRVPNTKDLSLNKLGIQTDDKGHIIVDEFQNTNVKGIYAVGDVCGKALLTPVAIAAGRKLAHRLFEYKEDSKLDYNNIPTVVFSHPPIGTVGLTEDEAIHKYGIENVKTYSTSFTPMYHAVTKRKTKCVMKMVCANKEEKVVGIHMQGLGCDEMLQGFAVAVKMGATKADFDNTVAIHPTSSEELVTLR

S. mansoni TGR [2] = target: T2, S. mansoni TGR (Schistosoma mansoni, UniProt Q962Y6); format: biochemical; design: The entire TGR ORF plus the SECIS element was subcloned into pET-24a; made in house; host or cells: Escherichia coli BL21(DE3) with pSUABC; settings: read-out: IC50 S. mansoni TGR, DTNB (TrxR activity); 3 mM DTNB, 15 min preincubation with 100 μM NADPH
T2 sequence (Q962Y6 1-598): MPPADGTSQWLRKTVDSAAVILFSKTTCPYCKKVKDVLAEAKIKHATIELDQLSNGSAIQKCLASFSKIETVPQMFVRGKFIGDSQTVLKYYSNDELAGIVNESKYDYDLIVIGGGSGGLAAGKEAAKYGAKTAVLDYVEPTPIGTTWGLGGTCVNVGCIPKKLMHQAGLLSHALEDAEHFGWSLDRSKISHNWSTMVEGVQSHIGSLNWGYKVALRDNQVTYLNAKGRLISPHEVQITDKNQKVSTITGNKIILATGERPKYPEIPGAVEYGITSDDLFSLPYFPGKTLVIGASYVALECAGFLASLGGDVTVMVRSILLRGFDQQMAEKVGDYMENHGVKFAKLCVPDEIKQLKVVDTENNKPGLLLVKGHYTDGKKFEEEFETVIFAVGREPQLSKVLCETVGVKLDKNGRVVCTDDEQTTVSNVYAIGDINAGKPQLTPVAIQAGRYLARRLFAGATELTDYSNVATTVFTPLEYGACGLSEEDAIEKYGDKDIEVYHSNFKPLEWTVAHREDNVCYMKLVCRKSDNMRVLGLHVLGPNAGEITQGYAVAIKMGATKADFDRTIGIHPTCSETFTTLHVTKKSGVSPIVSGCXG
Protocol: (§2) Assays were performed at 25 °C in 0.1 M potassium phosphate (pH 7.4), 10 mM EDTA using 100 μM NADPH unless otherwise stated.
(§3) Initial inhibitor screens were conducted in 200 μl volumes in 96 well plates with 50 μM inhibitor, 100 μM NADPH, and 5 nM TGR in 0.1 M potassium phosphate (pH 7.4), 10 mM EDTA with a preincubation step of 15 min. […] All assays were done in triplicate.

schistosomula = assay: Schistosomula survival after RNAi and/or drug treatment; format: cell-based, Schistosoma mansoni; settings: AF at 2 μM; TGR dsRNA
Protocol: Cercariae were mechanically transformed to schistosomula by vortexing, and bodies were separated from tails by Percoll gradient centrifugation as described [13]. Immediately after transformation, TGR dsRNA or irrelevant dsRNA (each at 54 μg/ml) was added to ~500 schistosomula in 50 μl water followed by incubation at 37 °C for 30 min. After addition of 250 μl of RPMI-1640 medium, 300 U/ml penicillin, and 175 μg/ml streptomycin, parasites were incubated at 37 °C in 5% CO2 atmosphere for 4 d. Reduced O2 tension was obtained by filtering media and purging with 95% N2, 5% CO2 for 20 min before use. Parasites were cultured during the course of the experiment in the appropriate gaseous mix at 37 °C in a sealed modular incubator chamber (Billups-Rothenberg, http://www.brincubator.com) flushed with the same gaseous mix. On day 2 of the experiment, 50 μl of fresh media was added. Schistosomula were assessed daily for viability by microscopy. For each time point at least 1,500 parasites were scored as alive or dead in each experiment (three replicates of 500 each), and each experiment was repeated three times.
(B) Parasites were cultured in the presence of double-stranded TGR RNA (dashed lines) or of double-stranded irrelevant RNA (solid lines) in 20% O2 (♦) or 0% O2 (). […] (C) Combination of RNAi and drug treatments. Solid lines are irrelevant dsRNA treatments and dashed lines are dsTGR treatments; no additions (♦), 2 μM praziquantel () and 2 μM AF (▴). […] In each experiment for each time point at least 1,500 parasites were scored as alive or dead (three replicates of 500 parasites). The error bars represent the standard deviations of three independent experiments.

[3] = Tolerability of AF dosage in mice; format: in vivo; settings: 6 mg/kg twice daily for 9 d
Protocol: Mice (14-wk-old females; C57BL/6 in experiment 1, NIH-Swiss in experiment 2) infected with 60 S. mansoni cercariae were injected intraperitoneally with 6 mg/kg of AF twice daily for 9 d, beginning 7 wk post infection. Infected control mice were injected with equal amounts of carrier. Mice were perfused 1 wk after the final dose of AF and worm burdens were determined.

TGR = TGR (Schistosoma mansoni, UniProt Q962Y6); assay: TrxR and GR activities of TGR in homogenates of treated worms; format: cell-based; settings: after 1 h of treatment with 10 μM AF, compared to control worms
Protocol: as §1

S. mansoni TGR [4] = target: T2, S. mansoni TGR
Protocol: as §2, §3

SMILES: CC(=O)OC[C@H]1O[C@@H]([S-])[C@H](OC(C)=O)[C@@H](OC(C)=O)[C@@H]1OC(C)=O.CCP(CC)CC.[Au+] [AF, auranofin]
- Decrease of GSH:GSSG ratio (GSH:GSSG ratio): 85%
- Time to kill larval, skin stage and juvenile liver stage parasites [1]: less than 10 h
- Concentration tolerated by mammalian cell line (myeloma cell line SP2/0): 100 µM
- IC50 (Human GR): 40 µM
- IC50 (S. mansoni TGR [2]): 0.007 µM
- Schistosomula survival after 1 d (schistosomula): 93.7%
- Schistosomula survival after 2 d (schistosomula): 66.1%
- Tolerability in mice [3]: well tolerated
- Inhibition of GR activity of TGR in worm homogenates (TGR): ~100%
- Inhibition of TrxR activity of TGR in worm homogenates (TGR): ~100%
- activity (S. mansoni TGR [4]): 0%

— publication PMC1892040 (PLoS Medicine, 2007)
